test system: alpha-MyHC; assay: alpha-MyHC cytoblot in neonatal rat ventricular myocytes (NRVM); format: cell-based; settings: Rattus norvegicus, Ventricular myocyte, Table 1, 72 hours, concentration giving 50% of maximum response
Protocol: In vitro activity of each compound is measured using the alpha-MyHC cytoblot process. Briefly, neonatal rat ventricular myocytes (NRVM) at 120,000 cells/ml in HyQ DME/High modified culture media supplemented with 10% charcoal/dextran treated FBS, 0.1% Nutridoma-SP, 1:100 MEM non-essential amino acids, 1:50 MEM amino acids solution w/o L-Gln, 1 mM sodium pyruvate and 1:100 P/S/G, are plated on gelatin coated sterile 384-well plates (Costar 3712) at 6,000 cells per well. Cells are incubated overnight at 37° C. in 5% CO2 100% humidity. Following overnight growth the media is changed to HyQ DME/High modified culture media supplemented with 0.3% Nutridoma-SP, 1:100 MEM non-essential amino acids, 1:50 MEM amino acids solution w/o L-Gln, 1 mM sodium pyruvate and 1:100 P/S/G. Cells are then dosed with serial dilutions of each compound in DMSO. Each concentration in the dose range is dosed in quadruplicate. Dosing is done in such a way so that the final DMSO concentration was 0.44%. Compound dilutions are 3-fold with the final top concentration of 10 uM. […] Following dosing, the cells are incubated for 72 hours at 37° C. in 5% CO2 100% humidity and then processed with the cytoblot method. Briefly, cell media is aspirated and cell monolayers washed with PBS and fixed with 100% methanol for 30 minutes. Fixed cells are then blocked with PBS, 0.05% Tween-20, 1% BSA, for 1 hour. Following blocking, cells are incubated with primary alpha-MyHC-specific antibody (1:30 dilution of BA-G5 hybridoma conditioned media, ATCC HB276) for 1 hour. Following incubation with the primary antibody, cells are washed with PBS, 0.05% Tween-20, 1% BSA and incubated with secondary antibody (1:1000 dilution, goat-anti-mouse HRP, Southern Biotech, 1031-05) for 1 hour. Following incubation with the secondary antibody, wells are washed and incubated in SuperSignal, West Dura HRP-luminescence substrate for 30 seconds under shaking at room temperature. Luminescence is measured using a Packard Fusion plate reader. […] RLU values are converted into percent fraction of low control and dose responses are fitted to a sigmoidal 4-parameter equation (XLFit, IDBS) where the EC50 and Max Plateau values were extracted. […] Max Plateau is the […] maximum value determined by the dose response fit.

Compound	EC50 [nM]
CCC(=O)C1=C(CC)Nc2sc(C(=O)c3ccc(Cl)c(Cl)c3)c(N)c2C1c1ccncc1 (stereo not shown) [Compound 104, 1-[3-amino-2-(3,4 dichloro-benzoyl)-6-ethyl-4 pyridin-4-yl-4,7 dihydro-thieno[2,3-b]pyridin-5-yl]-propan-1-one]	24.8
CCC(=O)C1=C(CC)Nc2sc(C(=O)c3ccc(F)c(F)c3)c(N)c2C1c1ccccc1F (stereo not shown) [Compound 108, 1-[3-amino-2-(3,4 difluoro-benzoyl)-6-ethyl-4-(2 fluoro-phenyl)-4,7 dihydro-thieno[2,3-b]pyridine-5-yl]propan-1-one]	4.02

same assay, conditions: Table 1, 72 hours, fitted maximum, percent fraction of low control (vehicle), in %

Compound	Max Plateau
CCC(=O)C1=C(CC)Nc2sc(C(=O)c3ccc(Cl)c(Cl)c3)c(N)c2C1c1ccccc1C (stereo not shown) [Compound 56]	293.74 ± 50.82
CC(=O)C1=C(C)Nc2sc(C(=O)c3ccccc3Cl)c(N)c2C1c1ccccc1 (stereo not shown) [Compound 57]	246.00 ± 16.33
CCC(=O)C1=C(CC)Nc2sc(C(=O)c3ccc(Cl)c(Cl)c3)c(N)c2C1c1cccc([N+](=O)[O-])c1 (stereo not shown) [Compound 58]	232.20 ± 56.57
CCC(=O)C1=C(CC)Nc2sc(C(=O)c3ccc(Cl)c(Cl)c3)c(N)c2C1c1ccccc1[N+](=O)[O-] (stereo not shown) [Compound 59]	152.77 ± 11.42
CCC(=O)C1=C(CC)Nc2sc(C(=O)c3ccc(Cl)c(Cl)c3)c(N)c2C1c1ccccc1C(F)(F)F (stereo not shown) [Compound 60]	100.00 ± 0.00
CC(=O)C1=C(C)Nc2sc(C(=O)c3cccc(F)c3)c(N)c2C1c1ccccc1 (stereo not shown) [Compound 61]	230.65 ± 55.61
COC(=O)c1cccc(C(=O)c2sc3c(c2N)C(c2ccccc2)C(C(C)=O)=C(C)N3)c1 (stereo not shown) [Compound 62]	279.31 ± 67.94
CCC(=O)C1=C(CC)Nc2sc(C(=O)c3ccc(Cl)c(Cl)c3)c(N)c2C1c1c(F)cccc1F (stereo not shown) [Compound 63]	230.07 ± 45.59
CCC(=O)C1=C(CC)Nc2sc(C(=O)c3cc(Cl)ccc3Cl)c(N)c2C1c1ccccc1 (stereo not shown) [Compound 64]	281.39 ± 54.54
CC(=O)C1=C(C)Nc2sc(C(=O)c3cccc(C(=O)O)c3)c(N)c2C1c1ccccc1 (stereo not shown) [Compound 65]	100.00 ± 0.00
CCC(=O)C1=C(CC)Nc2sc(C(=O)c3cccc(Cl)c3)c(N)c2C1c1ccccc1 (stereo not shown) [Compound 66]	306.19 ± 54.21
CCC(=O)C1=C(CC)Nc2sc(C(=O)c3ccccc3F)c(N)c2C1c1ccccc1 (stereo not shown) [Compound 67]	256.12 ± 53.66
CCC(=O)C1=C(CC)Nc2sc(C(=O)c3ccccc3)c(N)c2C1c1cccnc1 (stereo not shown) [Compound 68]	175.88 ± 14.54
CCC(=O)C1=C(CC)Nc2sc(C(=O)c3ccccc3)c(N)c2C1c1c(F)cccc1F (stereo not shown) [Compound 69]	221.36 ± 15.94
CCC(=O)C1=C(CC)Nc2sc(C(=O)c3ccc(Cl)cc3Cl)c(N)c2C1c1ccccc1 (stereo not shown) [Compound 70]	191.97 ± 13.09
CCC(=O)C1=C(CC)Nc2sc(C(=O)c3ccc(F)c(F)c3)c(N)c2C1c1ccccc1 (stereo not shown) [Compound 72]	223.99 ± 24.51
CCC(=O)C1=C(CC)Nc2sc(C(=O)c3cc(C(F)(F)F)cc(C(F)(F)F)c3)c(N)c2C1c1ccccc1 (stereo not shown) [Compound 73]	205.27 ± 38.78
CCC(=O)C1=C(CC)Nc2sc(C(=O)c3cccc(C(=O)OC)c3)c(N)c2C1c1ccccc1 (stereo not shown) [Compound 74]	262.81 ± 32.38
CCC(=O)C1=C(CC)Nc2sc(C(=O)c3ccc(Cl)c(Cl)c3)c(N)c2C1c1cccnc1 (stereo not shown) [Compound 75]	226.71 ± 40.80
CCC(=O)C1=C(CC)Nc2sc(C(=O)c3cc(F)cc(F)c3)c(N)c2C1c1ccccc1 (stereo not shown) [Compound 76]	230.70 ± 23.22
CCC(=O)C1=C(CC)Nc2sc(C(=O)c3cccc(C(=O)O)c3)c(N)c2C1c1ccccc1 (stereo not shown) [Compound 77]	220.00 ± 10.00
CCC(=O)C1=C(CC)Nc2sc(C(=O)c3ccccc3)c(N)c2C1c1ccccc1F (stereo not shown) [Compound 78]	269.77 ± 35.30
CCC(=O)C1=C(CC)Nc2sc(C(=O)c3ccc(F)cc3)c(N)c2C1c1ccccc1 (stereo not shown) [Compound 79]	241.90 ± 15.79
CCC(=O)C1=C(CC)Nc2sc(C(=O)c3ccc(Cl)cc3)c(N)c2C1c1ccccc1 (stereo not shown) [Compound 80]	226.13 ± 5.25
CCC(=O)C1=C(CC)Nc2sc(C(=O)c3ccc(Cl)c(Cl)c3)c(N)c2C1c1ccc(OC)cc1F (stereo not shown) [Compound 81]	184.00 ± 15.51

Compound	Max Plateau
CCC(=O)C1=C(CC)Nc2sc(C(=O)c3ccccc3Cl)c(N)c2C1c1ccccc1 (stereo not shown) [Compound 82]	245.96 ± 30.73
CCC(=O)C1=C(CC)Nc2sc(C(=O)c3ccc(Cl)c(Cl)c3)c(N)c2C1c1ccc(O)cc1Cl (stereo not shown) [Compound 83]	274.88 ± 44.56
CCC(=O)C1=C(CC)Nc2sc(C(=O)c3ccc(Cl)c(Cl)c3)c(N)c2C1c1cccc(F)c1 (stereo not shown) [Compound 84]	242.72 ± 19.34
CCC(=O)C1=C(CC)Nc2sc(C(=O)c3ccc(Cl)c(Cl)c3)c(N)c2C1c1cccc2ccccc12 (stereo not shown) [Compound 85]	105.90 ± 6.18
CCCC(=O)C1=C(CCC)Nc2sc(C(=O)c3ccc(Cl)c(Cl)c3)c(N)c2C1c1ccccc1 (stereo not shown) [Compound 86]	131.26 ± 2.34
CCCC(=O)C1=C(CCC)Nc2sc(C(=O)c3ccc(Cl)c(Cl)c3)c(N)c2C1c1ccccc1F (stereo not shown) [Compound 87]	187.66 ± 12.24
CCC(=O)C1=C(CC)Nc2sc(C(=O)c3ccc(Cl)c(Cl)c3)c(N)c2C1c1ccc2ccccc2c1 (stereo not shown) [Compound 88]	113.45 ± 11.92
CCC(=O)C1=C(CC)Nc2sc(C(=O)c3ccc(Cl)c(C)c3)c(N)c2C1c1ccccc1 (stereo not shown) [Compound 89]	230.09 ± 19.81
CCC(=O)C1=C(CC)Nc2sc(C(=O)c3cc(C(C)(C)C)c(O)c(C(C)(C)C)c3)c(N)c2C1c1ccccc1 (stereo not shown) [Compound 90]	300.00 ± 0.00
CCCC(=O)C1=C(CCC)Nc2sc(C(=O)c3ccc(Cl)cc3Cl)c(N)c2C1c1ccccc1F (stereo not shown) [Compound 91]	143.39 ± 20.69
CCCC(=O)C1=C(CCC)Nc2sc(C(=O)c3cc(Cl)ccc3Cl)c(N)c2C1c1ccccc1F (stereo not shown) [Compound 92]	189.00 ± 25.40
CCCC(=O)C1=C(CCC)Nc2sc(C(=O)c3cc(Cl)ccc3Cl)c(N)c2C1c1ccccc1 (stereo not shown) [Compound 94]	153.83 ± 13.14
CCCC(=O)C1=C(CCC)Nc2sc(C(=O)c3ccc(F)c(F)c3)c(N)c2C1c1ccccc1 (stereo not shown) [Compound 95]	147.01 ± 6.43
CCC(=O)C1=C(CC)Nc2sc(C(=O)c3cccc([N+](=O)[O-])c3)c(N)c2C1c1ccccc1 (stereo not shown) [Compound 96]	254.87 ± 72.67
CCC(=O)C1=C(CC)Nc2sc(C(=O)c3cccc([N+](=O)[O-])c3)c(N)c2C1c1ccccc1F (stereo not shown) [Compound 97]	247.24 ± 38.88
CCC(=O)C1=C(CC)Nc2sc(C(=O)c3ccc(Cl)c(Cl)c3)c(N)c2C1c1ccnc(F)c1 (stereo not shown) [Compound 98]	255.02 ± 32.01
CCC(=O)C1=C(CC)Nc2sc(C(=O)c3ccc(Cl)c(Cl)c3)c(N)c2C1c1ccnc(Cl)c1 (stereo not shown) [Compound 99]	264.37 ± 33.84
CCC(=O)C1=C(CC)Nc2sc(C(=O)c3ccc(Cl)c(Cl)c3)c(N)c2C1c1cc(F)cc(F)c1 (stereo not shown) [Compound 100]	262.04 ± 31.65
CCC(=O)C1=C(CC)Nc2sc(C(=O)c3ccc(F)c(F)c3)c(N)c2C1c1cc(F)cc(F)c1 (stereo not shown) [Compound 101]	230.49 ± 17.13
CCC(=O)C1=C(CC)Nc2sc(C(=O)c3ccc(F)c(F)c3)c(N)c2C1c1ccnc(F)c1 (stereo not shown) [Compound 102]	269.88 ± 36.90
CCC(=O)C1=C(CC)Nc2sc(C(=O)c3cccnc3)c(N)c2C1c1ccnc(F)c1 (stereo not shown) [Compound 103]	254.65 ± 31.26
CCC(=O)C1=C(CC)Nc2sc(C(=O)c3ccccc3)c(N)c2C1c1cc(F)cc(F)c1 (stereo not shown) [Compound 105]	273.18 ± 37.33
CCC(=O)C1=C(CC)Nc2sc(C(=O)c3ccccc3Br)c(N)c2C1c1ccccc1 (stereo not shown) [Compound 106]	244.21 ± 29.53
CCC(=O)C1=C(CC)Nc2sc(C(=O)c3c(Cl)cccc3Cl)c(N)c2C1c1ccccc1F (stereo not shown) [Compound 107]	273.85 ± 29.06
CCC(=O)C1=C(CC)Nc2sc(C(=O)c3ccc(C#N)cc3)c(N)c2C1c1ccccc1 (stereo not shown) [Compound 112]	266.67 ± 57.74

same assay, conditions: Table 2, 72 hours, fitted maximum, percent fraction of low control (vehicle), in %

Compound	Max Plateau
CCOC(=O)C1=C(C)Nc2sc(C(=O)c3ccc(Cl)c(Cl)c3)c(N)c2C1c1ccccc1 (stereo not shown) [Compound 113]	256.38
COC(=O)C1=C(C(C)C)Nc2sc(C(=O)c3ccc(Cl)c(Cl)c3)c(N)c2C1c1ccccc1 (stereo not shown) [Compound 116]	107.57
COCCOC(=O)C1=C(C)Nc2sc(C(=O)c3ccc(Cl)c(Cl)c3)c(N)c2C1c1ccccc1 (stereo not shown) [Compound 119]	234.93

Reference: patent US20090306373A1, “4,7-DIHYDROTHIENO[2,3-B]PYRIDINE COMPOUNDS AND PHARMACEUTICAL COMPOSITIONS” (priority 2005, published 2009)
